# Assay results from patent US10760052B2, “Method of inhibiting tau phosphorylation” (priority 2012, dated 2020).
# Several values for one entry are separate records, joined by “and”; a condition that tells them apart may be missing. Equal entries are not always repeated. Where two headings read alike, the source gives them in different places.
# Key:
# [1] = molecular target: VAKGL pentapeptide of filamin A (FLNA) of SEQ ID NO: 1 (Homo sapiens, UniProt P21333); test: FITC-NLX-based FLNA screening assay (inhibition of FITC-naloxone binding to Bn-VAKGL on streptavidin plates); conditions: for Percent binding inhibition, preliminary study: 100 nM frozen-stored FITC-NLX, average of two runs; for Binding to FLNA (in words): preliminary study
# mu opiate receptor (MOR) = molecular target: T1, mu opiate receptor (MOR) (Rattus norvegicus, UniProt P33535); assay type: biochemical; conditions: for MOR agonist activity ([35S]GTPγS binding), compound as agonist / MOR agonist activity (in words): preliminary study; for MOR agonist activity ([35S]GTPγS binding), compound as agonist: average of two runs
# T1 construct: from tissue; host or cells: striatum (membrane preparation)
# T1 sequence (P33535 whole entry): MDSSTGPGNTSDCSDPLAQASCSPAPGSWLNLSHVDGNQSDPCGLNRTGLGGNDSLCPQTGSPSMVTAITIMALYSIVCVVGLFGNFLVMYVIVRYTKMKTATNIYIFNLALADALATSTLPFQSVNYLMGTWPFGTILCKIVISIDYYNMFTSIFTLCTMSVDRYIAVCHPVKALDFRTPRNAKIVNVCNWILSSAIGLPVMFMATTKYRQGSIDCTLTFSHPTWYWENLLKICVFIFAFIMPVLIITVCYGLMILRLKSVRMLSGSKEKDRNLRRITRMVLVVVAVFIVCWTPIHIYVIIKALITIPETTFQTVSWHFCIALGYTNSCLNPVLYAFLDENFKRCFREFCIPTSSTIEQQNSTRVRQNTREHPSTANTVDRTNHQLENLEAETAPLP
# [2] = [35S]GTPγS binding to Gαo in striatal membranes, compound 0.1 μM
# [3] = [35S]GTPγS binding to Gαo in striatal membranes, compound 1 μM
# [4] = [35S]GTPγS binding to Gαo in striatal membranes, compound 1 μM plus 1 μM β-funaltrexamine (MOR antagonist)
# [5] = 0.01 μM FLNA-binding compound, 10 nM FITC-NLX
# [6] = 0.1 μM FLNA-binding compound, 10 nM FITC-NLX
# [7] = 1 μM FLNA-binding compound, 10 nM FITC-NLX
# [8] = 0.1 μM compound, striatal membranes, Series C-2
# [9] = 1 μM compound + 1 μM β-FNA (selective MOR antagonist), Series C-2
# [10] = 1 μM compound, striatal membranes, Series C-2
Structure (SMILES),% DAMGO (0.1 μM) (mu opiate receptor (MOR)),% DAMGO (1 μM) (mu opiate receptor (MOR)),% DAMGO + BFNA (mu opiate receptor (MOR)),Concentration of FLNA-Binding Compound as Agonist 0.1 μM (mu opiate receptor (MOR); [2]),Concentration of FLNA-Binding Compound as Agonist 1 μM (mu opiate receptor (MOR); [3]),Concentration of FLNA-Binding Compound as Agonist 1 μM + BFNA (mu opiate receptor (MOR); [4]),"[35S]GTPγS binding, FLNA-Binding Compound as Agonist at 0.1 μM (mu opiate receptor (MOR); [8])","[35S]GTPγS binding, FLNA-Binding Compound as Agonist at 1 μM + BFNA (mu opiate receptor (MOR); [9])","[35S]GTPγS binding, FLNA-Binding Compound as Agonist at 1 μM (mu opiate receptor (MOR); [10])",other results
"C=CCN1CC[C@]23c4c5ccc(O)c4O[C@H]2C(=O)CC[C@]3(O)[C@H]1C5 [(+) NLX, (+)naloxone]",–,–,–,–,–,–,–,–,–,"Percent binding inhibition, preliminary study ([1]; 0.1 nM compound): 22.7%; Percent binding inhibition, preliminary study ([1]; 1 nM compound): 22.8%; Percent binding inhibition, preliminary study ([1]; 10 nM compound): 23.1%; Percent binding inhibition, preliminary study ([1]; 100 nM compound): 22.8%; Percent binding inhibition, preliminary study ([1]; 1 μM compound): 39.8%"
O=S(=O)(c1ccc(OC(F)(F)F)cc1)N1CCOC12CCN(CC1CC1)CC2 [Compound 4],–,–,–,–,–,–,–,–,–,"MOR agonist activity ([35S]GTPγS binding), compound as agonist (mu opiate receptor (MOR); 0.1 μM): 133.9%; MOR agonist activity ([35S]GTPγS binding), compound as agonist (mu opiate receptor (MOR); 1 μM + βNFA): 49.5%; MOR agonist activity ([35S]GTPγS binding), compound as agonist (mu opiate receptor (MOR); 1 μM): 165.2%; MOR agonist activity (in words) (mu opiate receptor (MOR)): not as potent a MOR agonist; Binding to FLNA (in words) [1]: bound well to FLNA"
Cc1ccc(S(=O)(=O)N2CCOC23CCN(CC2CCC2)CC3)cc1 [Compound 9],–,–,–,–,–,–,–,–,–,"MOR agonist activity ([35S]GTPγS binding), compound as agonist (mu opiate receptor (MOR); 0.1 μM): 156.6%; MOR agonist activity ([35S]GTPγS binding), compound as agonist (mu opiate receptor (MOR); 1 μM + βNFA): 56.6%; MOR agonist activity ([35S]GTPγS binding), compound as agonist (mu opiate receptor (MOR); 1 μM): 197.2%; MOR agonist activity (in words) (mu opiate receptor (MOR)): MOR agonists; Binding to FLNA (in words) [1]: bind well to FLNA"
C=CCN1CCC2(CC1)OCCN2S(=O)(=O)c1ccc(C)cc1 [Compound 10],–,–,–,–,–,–,–,–,–,"MOR agonist activity ([35S]GTPγS binding), compound as agonist (mu opiate receptor (MOR); 0.1 μM): 163.1%; MOR agonist activity ([35S]GTPγS binding), compound as agonist (mu opiate receptor (MOR); 1 μM + βNFA): 60.4%; MOR agonist activity ([35S]GTPγS binding), compound as agonist (mu opiate receptor (MOR); 1 μM): 191.8%; MOR agonist activity (in words) (mu opiate receptor (MOR)): MOR agonists; Binding to FLNA (in words) [1]: bind well to FLNA"
CC1CCC(C(C)C)C(OCC(O)CN2CCc3ccccc32)C1 (stereo not drawn) [Compound A0065],126.6%,115.7%,112.5%,197.6%,266.8%,44.9%,–,–,–,"Percent Binding Inhibition (FITC-NLX binding) [1, 5]: 38.7%; Percent Binding Inhibition (FITC-NLX binding) [1, 6]: 50.0%; Percent Binding Inhibition (FITC-NLX binding) [1, 7]: 50.8%"
COc1c2c(cc3c1C(CC(=O)c1ccc(F)c(F)c1)[N+](C)(C)CC3)OCO2 (stereo not drawn) [Compound B0003],59.9%,47.4%,29.0%,103.0%,131.1%,18.6%,–,–,–,"Percent Binding Inhibition (FITC-NLX binding) [1, 5]: 45.4%; Percent Binding Inhibition (FITC-NLX binding) [1, 6]: 52.9%; Percent Binding Inhibition (FITC-NLX binding) [1, 7]: 63.5%"
COc1c2c(cc3c1C(CC(O)Cc1ccccc1C)N(C)CC3)OCO2 (stereo not drawn) [Compound B0054],93.4%,85.3%,668.7%,157.8%,186.7%,111.0%,–,–,–,"Percent Binding Inhibition (FITC-NLX binding) [1, 5]: 25.6%; Percent Binding Inhibition (FITC-NLX binding) [1, 6]: 32.6%; Percent Binding Inhibition (FITC-NLX binding) [1, 7]: 43.3%"
O=S(=O)(c1cccs1)N1CCC2(CC1)OCCN2S(=O)(=O)c1cccs1 [Compound C0141M],109.9%,105.8%,121.9%,161.5%,213.9%,47.9%,–,–,–,–
COc1ccc(S(=O)(=O)N2CCC3(CC2)NCCC(=O)N3)cc1 [Compound C0142M],97.8%,95.2%,251.1%,–,–,–,143.7%,98.7%,192.5%,–
O=S(=O)(c1cccc2cccnc12)N1CCC2(CC1)OCCN2S(=O)(=O)c1cccc2cccnc12 [Compound C0143M],47.1%,59.3%,94.7%,81.0%,193.3%,86.5%,81.0%,86.5%,193.3%,–
COc1ccc(S(=O)(=O)N2CCC3(NCCO3)C3CCCCC32)cc1 (stereo not drawn) [Compound C0144M-2],108.3%,90.8%,137.9%,–,–,–,186.3%,125.9%,295.9%,–
COc1ccc(S(=O)(=O)N2CCC3(OCCN3S(=O)(=O)c3ccc(OC)cc3)C3CCCCC32)cc1 (stereo not drawn) [Compound C0144M],108.3%,90.8%,137.9%,186.3%,295.9%,125.9%,–,–,–,–
COc1ccc(S(=O)(=O)N2CCOC23CCCNC3)cc1 (stereo not drawn) [Compound C0145M-3],112.2%,88.7%,95.3%,–,–,–,193.0%,87.0%,289.2%,–
COc1ccc(S(=O)(=O)N2CCCC3(C2)OCCN3S(=O)(=O)c2ccc(OC)cc2)cc1 (stereo not drawn) [Compound C0145M],112.2%,88.7%,95.3%,193.0%,289.2%,87.0%,–,–,–,–
O=S(=O)(c1ccccc1Oc1ccccc1)N1CCC2(CC1)NCCO2 [Compound C0149M-2],122.0%,124.8%,102.3%,–,–,–,209.8%,93.4%,406.7%,–
O=S(=O)(c1ccc(Oc2ccccc2)cc1)N1CCC2(CC1)OCCN2S(=O)(=O)c1ccc(Oc2ccccc2)cc1 [Compound C0149M],122.0%,124.8%,102.3%,209.8%,406.7%,93.4%,–,–,–,–
O=S(=O)(c1csc2ccccc12)N1CCC2(CC1)OCCN2S(=O)(=O)c1csc2ccccc12 [Compound C0150M],97.2%,129.8%,173.2%,167.1%,423.1%,93.4%,–,–,–,–
COc1ccc(NC(=O)N2CCC3(CC2)NCCO3)cc1 [Compound C0151M-2],201.6%,122.0%,233.1%,–,–,–,346.8%,212.8%,397.6%,–
COc1ccc(NC(=O)N2CCC3(CC2)OCCN3C(=O)Nc2ccc(OC)cc2)cc1 [Compound C0151M],201.6%,122.0%,233.1%,346.8%,397.6%,212.8%,–,–,–,–
"C[C@@H](NC(=O)[C@@H](N)Cc1ccc(O)cc1)C(=O)NCC(=O)N(C)[C@@H](Cc1ccccc1)C(=O)NCCO [DAMGO, reference compound]",–,–,–,–,–,–,–,–,–,"Concentration of FLNA-Binding Compound as Agonist 0.1 μM (mu opiate receptor (MOR)): 168.5%; Concentration of FLNA-Binding Compound as Agonist 1 μM (mu opiate receptor (MOR)): 266.1%; Concentration of FLNA-Binding Compound as Agonist 1 μM + BFNA (mu opiate receptor (MOR)): 53.2%; [35S]GTPγS binding, FLNA-Binding Compound as Agonist at 0.1 μM (mu opiate receptor (MOR)): 168.5%; [35S]GTPγS binding, FLNA-Binding Compound as Agonist at 1 μM (mu opiate receptor (MOR)): 266.1%; [35S]GTPγS binding, FLNA-Binding Compound as Agonist at 1 μM + BFNA (mu opiate receptor (MOR)): 53.2%"
"C=CCN1CC[C@]23c4c5ccc(O)c4O[C@H]2C(=O)CC[C@@]3(O)[C@H]1C5 [Naloxone, naloxone]",–,–,–,–,–,–,–,–,–,Percent Binding Inhibition (FITC-NLX binding) [1]: 39.87% and 46.29% and 50.91%
COc1ccc(S(=O)(=O)N2CCSC23CCNCC3)cc1 [S-C0027],74.2%,84.4%,98.1%,–,–,–,156.2%,56.2%,286.8%,–
